Measurements reported in US10596160B2, “Compositions, methods and uses for the treatment of diabetes and related conditions by controlling blood glucose level” (PHARNEXT, priority 2012, dated 2020).
Entries after “also recorded” stand apart in the source; their conditions may differ.

How the values were obtained:
[1] = test system: differentiated 3T3-L1 adipocyte cells; assay: Glucose uptake in 3T3-L1 adipocyte cells; format: cell-based; details: 3T3-L1 cells
Method: 3T3-L1 preadipocyte cells were cultured in DMEM containing 1% penicillin-streptomycin (PS) and 10% bovine calf serum at 37° C. in a 5% CO2 atmosphere. […] Differentiation, as measured by the expression of adipogenic markers and the appearance of lipid droplets, usually reaches completion between days 4 and 8. Glucose uptake activity was analyzed by measuring the uptake of radiolabeled glucose. Differentiated 3T3-L1 adipocytes grown in 12-well plates were washed twice with serum-free DMEM and incubated for 2 h at 37° C. with 1 mL DMEM containing 0.1% BSA. […] Next, cells were incubated with or without drugs for different durations in order to evaluate their short-term and long-term effects. To evaluate their short-term effect, cells were incubated with drugs of the invention for 4 hours at 37° C. To evaluate the long-term effect of drugs of the invention, the day prior to the test, cells were pre-incubated with or without drugs for 16 h. The day after, prior to the test, cells were washed and incubated in the presence of the tested molecules for 4 h more. […] After 20 min, glucose uptake was terminated by washing the cells three times with cold PBS. The cells were lysed through incubation for 20 min at 37° C. with 0.7 mL of Triton X-100. Level of radioactivity in the cell lysates was determined using a scintillation counter. Protein quantification was performed by a colorimetric assay derived from the Lowry method.

[2] = test system: beta pancreatic INS-1 cells; assay: Prevention of beta cells apoptosis (ssDNA apoptosis detection kit); format: cell-based; parameters: concentration or dose not given beside the values; details: 1 h pre-incubation then 24 h in apoptotic conditions, drugs tested alone
Method: The beta pancreatic INS-1 cells have been selected for this study. The cells are cultured in complete medium, RPMI 1640 10 mM glucose supplemented with 1 mM sodium pyruvate, 50 μM 2-mercaptoethanol, 2 mM glutamine, 10 mM HEPES, 100 IU/mL penicillin, 100 μg/mL streptomycin and 10% heat-inactivated fetal calf serum (FCS), as described by Asfari et al. (23). INS-1 cells are plated (4.5×10^4 cells/well) in 96-well poly-ornithine coated plates and cultured at 37° C. in a humidified atmosphere of 95% air/5% CO2. The day after, cells are pre-incubated with the tested molecules for 1 h. Then, after a medium change, cells are cultured for 24 h in a medium containing the tested molecules and 30 mM glucose, 0.05 mM myristic acid, 25 ng/mL INF, 25 ng/mL TNF and 5 ng/mL IL.
The efficacy of compounds to prevent apoptosis is then evaluated by the highly specific apoptosis detection kit from Chemicon (Ref. APT225). This procedure is based on the detection of single-stranded DNA (ssDNA) which is a specific marker of apoptotic cells (24).
Results are expressed in optical density (OD) arbitrary unit and % of reduction of the apoptosis induced by apoptotic condition. Following a Dunnett t-test, all compounds showing a significant decrease in % of apoptotic cells compared to apoptotic control conditions are considered active.

[3] = test system: H-2 Kb mouse muscle cells; assay: Glucose uptake in mouse muscle cells; format: cell-based; details: H-2 Kb cells, vs non-treated cells
Method: For differentiation in […], cells are switched to non-permissive culture conditions (37° C. in a humidified atmosphere of 95% air/5% CO2; DMEM 5.5 mM D-glucose supplemented with 2% FCS, 10% horse serum, 2% glutamine, 1% chicken embryo, 100 U/mL penicillin, and 100 μg/mL streptomycin).
For long-term effect evaluation, the day before glucose uptake assay, cells are incubated in DMEM 5.5 mM D-glucose supplemented with 10% horse serum, 2% SVF, 1% chicken embryo, and 2% glutamine in the presence of the tested molecules for 16 h. […]
For short-term effect evaluation, 4 hours prior to the glucose test, cells are washed and incubated in a serum-free medium (DMEM) containing 5.5 mM D-glucose and the tested molecules. Then glucose uptake is measured by incubation of the cells for 5-10 min with radiolabeled 2-deoxy-D-[1,2^3H] glucose in Krebs-Ringer HEPES buffer (KRBH; pH 7.4), 0.1% Bovine Serum Albumin (BSA), and fraction V (Sigma, A-4503). […] Cell-associated radioactivity is then counted and protein quantification is determined using the colorimetric Lowry method. Glucose uptake is estimated by measuring the radioactivity incorporated to the cells by a MicroBeta counter after adding 600 μL per well of scintillant (Optiphase SuperMix3).
Protein quantification is performed by a colorimetric assay derived from the Lowry method. […]

[4] = test system: TNFα-induced insulin resistant 3T3-L1 differentiated adipocytes; assay: Glucose uptake in TNFα-induced insulin resistant 3T3-L1 differentiated adipocytes; format: cell-based; details: for enhancement of glucose uptake, combination experiment / enhancement of glucose uptake, combination with metformin: vs TNFα cells; for enhancement of glucose uptake, combination experiment: Dunnett's test; for enhancement of glucose uptake: drug alone, vs non-treated insulin-resistant cells (TNFα); for enhancement of glucose uptake, combination with metformin: combined or alone at the same concentrations
Method: 3T3L1 fibroblasts were maintained in DMEM 4.5 g/L glucose supplemented with 5% calf serum donor, 5% newborn calf serum, 100 U/mL penicillin, and 100 μg/mL streptomycin at 37° C. under a 10% CO2 atmosphere. Cells were grown on 24-well plates at a density of 2560 cells/well in 0.5 mL of growth medium (DMEM 4.5 g/L glucose supplemented with 10% FCS, 100 U/mL penicillin, and 100 μg/mL streptomycin). […] Fresh media were replaced after two days.
Glucose uptake was measured by quantification of incorporated radiolabeled glucose, after an incubation step with 2-deoxy-D[1,2^3H] glucose for 5 min. Glucose uptake was arrested by two washing steps in ice-cold PBS 1×, then were solubilized in 0.1N NaOH for 30 min. Cell-associated radioactivity was then counted using a MicroBeta counter after adding 600 μL per well of scintillant (Optiphase SuperMix3).
In parallel, protein quantification was determined by a colorimetric assay derived from the Lowry method. Results are expressed in nmol of glucose incorporated/5 mn/mg of protein and in % of control or basal condition (100%).

[5] = test system: beta pancreatic INS-1 cells; assay: Insulin secretion in response to glucose stimulation; format: cell-based, rat
Method: The cells are cultured in complete medium, RPMI 1640 10 mM glucose supplemented with 1 mM sodium pyruvate, 50 μM 2-mercaptoethanol, 2 mM glutamine, 10 mM HEPES, 100 IU/mL penicillin, 100 μg/mL streptomycin and 10% heat-inactivated fetal calf serum (FCS), as described by Asfari et al. (23). […] After 3 days of culture at 37° C. in a humidified atmosphere of 95% air/5% CO2, the medium is removed and cells are cultured for 16 h in a medium containing 5 mM glucose, 1% FCS (and the tested drugs for long-term evaluation).
The cells are washed again with KRBH and incubated for 1 h in KRBH 0.1% BSA containing 3.5 mM glucose and the tested molecules.
Standards, samples and controls are added to the appropriate wells with a horseradish peroxidase enzyme-labeled monoclonal antibody (conjugate). After incubation, the microplates are washed to remove unbound conjugate and a TMB substrate solution is added to react with the bound conjugate. Finally, after addition of a stop solution, the optical density is measured at 450 nm using a reference wavelength of 620 nm. The intensity of the yellow color is directly proportional to the amount of insulin within the samples.

hepatocytes = assay: Glucose production by hepatic cells; format: cell-based, rat; details: 10 μM
Method: Hepatocytes are isolated from 24 h-fasted male Wistar rats (200-250 g body weight) by ex situ liver perfusion in the presence of collagenase. Cell viability is validated by a trypan blue exclusion test. […] After plating, the medium is removed and cells are cultured for 16 h in RPMI medium without glucose (supplemented with the tested drugs for long-term evaluation). The following day, hepatic glucose production is assessed in Krebs-Ringer Bicarbonate HEPES buffer (KRBH; pH 7.4) in the presence of the neoglucogenic substrates (lactate 10 mM and pyruvate 1 mM) and the tested molecules for 4 h (short-term).
Supernatants are collected and glucose concentrations are determined using a glucose oxidase kit (Instrumentation Laboratory 0018250840). In parallel, protein quantification is performed using the colorimetric Lowry method.
Results are expressed in nmol glucose/mg protein and % of control condition (KLP: KRBH containing lactate and pyruvate).

[6] = drugs combined at a dose as low as 10 nM, or used individually
[7] = drugs combined at a dose as low as 3.3 nM, or used individually
[8] = fenspiride 3.3 nM and metformin 100 μM

## c1cnc(N2CCN(Cc3ccc4c(c3)OCO4)CC2)nc1 [piribedil]
[1]; short-term, 10 nM
  enhancement of glucose uptake: +68%

## C=CCNc1nc(NCC=C)nc(N2CCN(C(c3ccc(F)cc3)c3ccc(F)cc3)CC2)n1 [almitrine]
[2]
  Percentage of apoptosis reduction: 103%
[3]; short-term, 1 μM
  enhancement of glucose uptake: +80%
[1]; long-term, 1 μM
  enhancement of glucose uptake: +69%

## Nc1nc(N)c2nc(-c3ccccc3)c(N)nc2n1 [triamterene]
[2]
  Percentage of apoptosis reduction: 64%
[4]; [6]
  enhancement of glucose uptake, combination experiment: No significant effect
[5]; short-term pre-treatment, 10 μM
  enhancement of insulin secretion: +37%

## Cc1c(Cl)cccc1Nc1ccccc1C(=O)O [tolfenamic acid]
[4]; 10 nM
  enhancement of glucose uptake: +127%
[4]; 100 nM
  enhancement of glucose uptake: improvement
[4]; 1 μM
  enhancement of glucose uptake: improvement
[4]; [7]
  enhancement of glucose uptake, combination experiment: No significant effect
[4]; [6]
  enhancement of glucose uptake, combination experiment: No significant effect

## CN(C)C(=N)N=C(N)N [metformin]
[4]; [8]
  enhancement of glucose uptake, combination with metformin: does not lead to any significant improvement; also recorded: No significant effect
[4]; ifenprodil 3.3 nM and metformin 100 μM
  enhancement of glucose uptake, combination with metformin: does not lead to any significant improvement; also recorded: No significant effect

## O=C1NCC2(CCN(CCc3ccccc3)CC2)O1 [fenspiride]
[4]; 0.37 nM
  enhancement of glucose uptake: improvement
[4]; 1 nM
  enhancement of glucose uptake: +130%
[4]; 3.3 nM
  enhancement of glucose uptake: improvement
[4]; [7]
  enhancement of glucose uptake, combination experiment: No significant effect
[4]; [6]
  enhancement of glucose uptake, combination experiment: No significant effect
[4]; [8]
  enhancement of glucose uptake, combination with metformin: does not lead to any significant improvement; also recorded: No significant effect

## CCN(CC)CCOCCOC(=O)C1(c2ccccc2)CCCC1 [carbetapentane]
[2]
  Percentage of apoptosis reduction: 103%
[1]; short-term, 0.1 μM (100 nM)
  enhancement of glucose uptake: +58%

## O=C[C@@H](O)[C@@H](O)[C@H](O)[C@H](O)CO [D-mannose]
hepatocytes; short-term
  reduction of glucose production: −22%
[2]
  Percentage of apoptosis reduction: 129%

## NCC(CC(=O)O)c1ccc(Cl)cc1 (racemic) [baclofen]
[2]
  Percentage of apoptosis reduction: 84%

## CCN(CC)C(=O)N1CCN(C)CC1 [diethylcarbamazine]
[2]
  Percentage of apoptosis reduction: 44%

## Cc1cccc(C)c1OCC(C)N (stereo not shown) [mexiletine]
[2]
  Percentage of apoptosis reduction: 74%

## CO[C@]12C[C@@H](COC(=O)c3cncc(Br)c3)CN(C)[C@@H]1Cc1cn(C)c3cccc2c13 [nicergoline]
[2]
  Percentage of apoptosis reduction: 112%
[3]; long-term, 10 μM
  enhancement of glucose uptake: +28%

## CN(C)CC[C@@H](c1ccc(Br)cc1)c1ccccn1 [dexbrompheniramine]
[2]
  Percentage of apoptosis reduction: 76%

## C[C@@H]1CC(=O)NN=C1c1ccc(NN=C(C#N)C#N)cc1 [levosimendan]
[2]
  Percentage of apoptosis reduction: 118%

## CN1CCCC(n2nc(Cc3ccc(Cl)cc3)c3ccccc3c2=O)CC1 (stereo not shown) [azelastine]
hepatocytes; long-term
  reduction of glucose production: −36%
[2]
  Percentage of apoptosis reduction: 81%

## C[C@@H](NCCCc1cccc(C(F)(F)F)c1)c1cccc2ccccc12 [cinacalcet]
[2]
  Percentage of apoptosis reduction: 167%
[5]; long-term pre-treatment, 1 μM
  enhancement of insulin secretion: +55%

## Cc1ccc(C(=O)C(C)CN2CCCCC2)cc1 (stereo not shown) [tolperisone]
[2]
  Percentage of apoptosis reduction: 78%

## Cc1cccc(Nc2ccncc2S(=O)(=O)NC(=O)NC(C)C)c1 [torasemide]
[2]
  Percentage of apoptosis reduction: 67%
[4]; 0.37 nM
  enhancement of glucose uptake: +121%
[4]; 1 nM
  enhancement of glucose uptake: +123%
[4]; 3.3 nM
  enhancement of glucose uptake: +129%
